These results are taken from ChEMBL document CHEMBL1201862, “PubChem BioAssay data set” (2004).

Some test systems named below: SNB-19; COLO 205; UACC-257; SK-MEL-5; HOP-62; LOX IMVI; NCI-H226; SF-539; KM12; MOLT-4; M14; SK-MEL-2; MDA-MB-231; OVCAR-5; IGROV-1; SNB-75; MDA-N; K562; NCI-H23; HCT-116.
Holding throughout (assay): inhibition of tumour cell growth, NCI panel, 48 h

Structures are written as SMILES.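 Interpolation was linear, between the two tested concentrations surrounding the appropriate level; five concentrations were tested over 48 hours in 96-well plates. GI50: concentration for 50% inhibition of growth.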 Activity calls are given as the source filed them. No stated cut-off is given here; in the data, active = GI50 up to about 1.1 µM and inactive = higher. Some results are limits rather than exact numbers.

As for `CC(C)OC(=O)C(NC(=O)C(CC(=O)OCc1ccccc1)NC(=O)OCc1ccccc1)NC(=O)C1C(C)(C)CCC1(C)C` (stereo not given), the GI50 was 4.29 µM (inactive) with SNB-19; 2.99 µM (inactive) with COLO 205; 30.3 µM (inactive) with UACC-257; 13.7 µM (inactive) in the assay with SK-MEL-5; 6.56 µM (inactive) with HOP-62; 4.56 µM (inactive) with LOX IMVI. The GI50 in the assay with NCI-H226 is 7.21 µM (inactive); in the assay with SF-539 it was 2.81 µM (inactive); in the assay with KM12, 9.02 µM (inactive); in the assay with MOLT-4, 8.04 µM (inactive); in the assay on M14, 21.5 µM (inactive); in the assay on SK-MEL-2, 19.5 µM (inactive). For the same compound, the GI50 was 2.1 µM (inactive) in the assay with MDA-MB-231; 14.8 µM (inactive) in the assay on OVCAR-5; 13.7 µM (inactive) with IGROV-1; 2.68 µM (inactive) in the assay on SNB-75; 10.1 µM (inactive) in the assay with MDA-N; 4.31 µM (inactive) in the assay with K562. Besides, the GI50 with NCI-H23 was 10.2 µM (inactive); with HCT-116, 3.61 µM (inactive).
With `COC(=O)[C@]1(C)[C@H]2C[C@H]3O[C@H]4[C@H](O)[C@@H](O)OC(CC(O)C(C5=CC(=O)OC5)C(C5=CC(=O)OC5)C(O)CC56CCCCC7[C@@H](C)[C@H](C[C@H]8[C@](C)(C(=O)OC)[C@H](O)CC[C@]78C)O[C@H]([C@@H](O)[C@H](O)O5)[C@H]6O)(CCCCC([C@@H]3C)[C@]2(C)CC[C@@H]1O)[C@H]4O` (stereo not given in full), the GI50 is 0.372 µM (active) in the assay with SNB-19; 0.338 µM (active) in the assay with COLO 205; 0.244 µM (active) in the assay with UACC-257; 0.0296 µM (active) in the assay on SK-MEL-5; 0.065 µM (active) with HOP-62; 0.0993 µM (active) with LOX IMVI. Further, the GI50 in the assay on NCI-H226 is 0.973 µM (active); in the assay with SF-539, 0.0394 µM (active); with KM12, 0.353 µM (active); in the assay on MOLT-4, < 0.0184 µM (active); in the assay on M14, 0.332 µM (active); in the assay on SK-MEL-2 it was 0.237 µM (active). Moreover, the GI50 is 0.347 µM (active) in the assay with MDA-MB-231; 0.592 µM (active) with OVCAR-5; 0.0959 µM (active) in the assay with IGROV-1; 0.129 µM (active) in the assay with SNB-75; 0.138 µM (active) in the assay on MDA-N; 0.234 µM (active) with K562. Moreover, the results for the GI50 with NCI-H23 and in the assay with HCT-116 were 0.0439 µM (active) and 0.0404 µM (active), respectively.
Turning to `CC1=CCC[C@H]2[C@](C)(CC3=CC(=O)C4SCCSC4C3=O)[C@@H](C)CC[C@]12C` (stereo not given in full), the GI50 is 19 µM (inactive) in the assay on SNB-19; 17.7 µM (inactive) in the assay with COLO 205; 19.3 µM (inactive) in the assay on UACC-257; 13.8 µM (inactive) with SK-MEL-5; 15 µM (inactive) with HOP-62; 11.2 µM (inactive) in the assay on LOX IMVI. Besides, the GI50 in the assay on NCI-H226 was 15.9 µM (inactive); in the assay on SF-539, 21 µM (inactive); with KM12 it was 29 µM (inactive); in the assay on MOLT-4, 21.6 µM (inactive); with M14 it was 14.3 µM (inactive); in the assay with SK-MEL-2 it was 1.71 µM (inactive). Besides, the GI50 was 13.2 µM (inactive) with MDA-MB-231; 18.6 µM (inactive) in the assay on OVCAR-5; 32 µM (inactive) in the assay on IGROV-1; 27.7 µM (inactive) with SNB-75; 11.4 µM (inactive) in the assay on MDA-N; 19.9 µM (inactive) in the assay on K562. Besides, the GI50 in the assay with NCI-H23 is 13.2 µM (inactive); with HCT-116, 13.8 µM (inactive).
On to `O=C(O)[C@H]1NC[C@H]2C(Br)=NO[C@@H]12`, for which the GI50 in the assay with SNB-19, in the assay on COLO 205, in the assay on UACC-257, with SK-MEL-5, with HOP-62 and with LOX IMVI was > 100 µM (inactive) in each case. The GI50 in the assay with NCI-H226, in the assay on SF-539, with KM12, in the assay with MOLT-4, in the assay on M14 and in the assay on SK-MEL-2 was > 100 µM (inactive) throughout. The GI50 with MDA-MB-231, in the assay with OVCAR-5, in the assay with IGROV-1, in the assay with SNB-75, in the assay on MDA-N and in the assay on K562 was > 100 µM (inactive) throughout. The GI50 in the assay on NCI-H23 and with HCT-116 was > 100 µM (inactive) each time.
Regarding `CC(OCc1ccccc1)C(NC(=O)C1CSSCC(NC(=O)C(Cc2ccccc2)NC(=O)OCc2ccccc2)C(=O)NC(Cc2ccccc2)C(=O)NC(Cc2cn(C=O)c3ccccc23)C(=O)NC(CCCCNC(=O)OCc2ccccc2)C(=O)NC(C(C)OCc2ccccc2)C(=O)N1)C(N)=O` (stereo not given), the GI50 in the assay with SNB-19 is 36.7 µM (inactive); with COLO 205, 3.03 µM (inactive); with UACC-257, 44 µM (inactive); in the assay on SK-MEL-5, 24.5 µM (inactive); in the assay with HOP-62, 55.1 µM (inactive); with LOX IMVI, 20 µM (inactive). Besides, the GI50 is > 75 µM (inactive) in the assay with NCI-H226; > 100 µM (inactive) in the assay with SF-539; 3.91 µM (inactive) in the assay with KM12; 2.81 µM (inactive) in the assay on MOLT-4; 21.1 µM (inactive) in the assay with M14; 13.1 µM (inactive) with SK-MEL-2. Besides, the GI50 in the assay with MDA-MB-231 is 12.6 µM (inactive); in the assay on OVCAR-5, 45 µM (inactive); with IGROV-1 it was 22.6 µM (inactive); in the assay with SNB-75, 22.1 µM (inactive); in the assay on MDA-N, 24.2 µM (inactive); in the assay with K562 it was 16.4 µM (inactive). In addition, the GI50 in the assay with NCI-H23 was 33.4 µM (inactive); with HCT-116, 17.7 µM (inactive).
Turning to `CCn1cc(C(=O)O)c(=O)c2ccc(C)nc21` [NALIDIXIC ACID], the GI50 in the assay with SNB-19, in the assay on COLO 205, in the assay on UACC-257, in the assay on SK-MEL-5, in the assay with HOP-62 and with LOX IMVI was > 100 µM (inactive) throughout. Moreover, the GI50 in the assay on NCI-H226, with SF-539, in the assay with KM12, with MOLT-4, in the assay with M14 and in the assay with SK-MEL-2 was > 100 µM (inactive) each time. Moreover, the GI50 with MDA-MB-231 was > 100 µM (inactive); with OVCAR-5 it was > 100 µM (inactive); with IGROV-1, > 100 µM (inactive); in the assay with SNB-75, 97.3 µM (inactive); with MDA-N, > 100 µM (inactive); in the assay with K562, > 100 µM (inactive). Moreover, the GI50 with NCI-H23 and in the assay on HCT-116 was > 100 µM (inactive) each time.
